{"source": "paper PMC12114375", "about": "“Discovery of Hydrazineyl Amide Derivative of Pseudolaric Acid B for Reprogramming Tumor-Associated Macrophages Against Tumor Growth” (Molecules, 2025)", "key": {"[1]": {"tested_on": "M2-like polarization of BMDMs (CD206, CD86)", "assay": "Macrophage phenotype analysis by flow cytometry (CD206, CD86) in BMDMs", "type": "cell-based, mouse", "conditions": "CSF-1-differentiated BMDMs, IL-4 and IL-13, 48 h, different concentrations", "procedure": "We also extended the test to primary murine macrophages derived from bone marrow (BMDMs), which were cultured in vitro with recombinant mouse M-CSF for 6 days. The BMDMs were then stimulated with IL-4/IL-13, leading to their transformation into M2-like pro-tumoral macrophages. This transformation was characterized by an increase in both ARG1 and CD206 expression and a decrease in both NOS2 and MHC II expression. […] Subsequently, we assessed the capacity of compound 12 to inhibit the M2-like polarization of macrophages using CSF-1-differentiated mouse BMDMs. These cells were treated with IL-4 and IL-13 for 48 h, and the expression levels of CD206, an M2-type marker, and CD86, an M1-type marker, were analyzed via flow cytometry. […]\nBMDMs were collected and stained with a fluorescent antibody or the matching isotype controls for 30 min at room temperature and then tested using a BD CytoFLEX LX (Beckman, CA, USA). […] Data were analyzed using FlowJo10.4 software.\nFigure 2 Compound 12 inhibits the M2-like polarized phenotype of macrophages. […] The expression levels of the markers CD206 and CD86 on induced macrophages were determined by flow cytometry, and the mean fluorescence intensity (MFI) was analyzed with FlowJo (C), or the cells were lysed and immunoblotted to detect the indicated proteins (D). […]"}, "[2]": {"tested_on": "ARG1 mRNA expression in RAW 264.7 cells", "assay": "qRT-PCR of ARG1 mRNA in IL-4/IL-13-stimulated RAW 264.7 cells", "type": "cell-based, mouse", "conditions": "Mus musculus, RAW264.7, IL-4/IL-13 (20 ng/mL) plus compound 10 μM, 12 h, stimulated control = 100%, mean ± SD, read-out: ARG1 mRNA Relative Expression (%)", "from_the_text": "We first investigated the impacts of a series of commercially available natural pseudolaric acids or their O-pyranosides (Figure 1) on the pro-tumoral phenotype of TAMs, which play a critical role in anti-tumor immune response modulation. […] In contrast, M1-biased macrophages combat tumor growth and bacterial infections by expressing inducible nitric oxide synthase 2 (NOS2), which catalyzes the production of nitric oxide (NO). Recognizing the pivotal roles of ARG1 and NOS2, we utilized these molecules as key biomarkers and effectors for assessing macrophage immune function. In our experiments, the mouse monocyte–macrophage leukemia cell line RAW 264.7 was induced with IL-4/IL-13 to acquire an M2-like pro-tumoral phenotype. Concurrently, the cells were treated with the pseudolaric acid-related natural products 1–7 at a concentration of 10 μM for 12 h. Additionally, PLX3397 was used as a positive control at a concentration of 0.5 μM. […] As shown in Table 1 and Figure S1A, pseudolaric acid B (1), its deacetoxyl analogue 2 (pseudolaric acid C), and β-D-glucoside 7 substantially attenuated the upregulation of ARG1 mRNA expression induced by IL-4/IL-13, with statistically significant effects. In contrast, bis-carboxylic acids analogs 4 (pseudolaric acid C2) and 6 (demethoxydeacetoxypseudolaric acid B) have no significant impact on ARG1 mRNA expression.\nWith these carboxylic acid-modified derivatives in hand, we investigated their impact at 10 μM on ARG1 and NOS2 mRNA expression in RAW 264.7 cells pre-stimulated with IL-4/IL-13 to evaluate the effects on the pro-tumor phenotype of macrophages. […] Further removal of one hydroxyl from the glycerol moiety 15 further enhanced the inhibitory effect on ARG1 expression but had no significant impact on NOS2 expression.\nTotal RNA was isolated from cells using the EZ-press RNA Purification Kit (EZBioscience, Suzhou, China) and subjected to reverse transcription with the 5×HiScript II qRT SuperMix II (Vazyme, Nanjing, China). PCR was performed with the 2×ChamQ Universal SYBR qPCR Master Mix (Vazyme, Nanjing, China). All primers for qRT-PCR are described in Table S1. The 2^−∆∆Ct method was utilized to calculate the fold change in gene expression, with the expression levels in the stimulated group set as the baseline for normalization."}}, "data": [{"smiles": "COC(=O)C1=CC[C@@]23CC[C@@H]([C@@](C)(/C=C/C=C(\\C)C(=O)NNCCO)OC2=O)[C@@]3(OC(C)=O)CC1", "note": "[compound 12, Methyl(3R,4S,4aS,9aR)-4a-acetoxy-3-((1E,3E)-5-(2-(2-hydroxyethyl)hydrazineyl)-4-methyl-5-oxopenta-1,3-dien-1-yl)-3-methyl-1-oxo-3,4,4a,5,6,9-hexahydro-1H-4,9a-ethanocyclohepta[c]pyran-7-carboxylate]", "values": [{"measurement": "CD86 expression (MFI, flow cytometry)", "setting": "[1]", "value": "increase in CD86 expression"}, {"measurement": "CD206 expression (MFI, flow cytometry)", "setting": "[1]", "value": "decrease in CD206 expression"}, {"measurement": "mrna remaining at 10 µM", "setting": "[2]", "value": "1.4 ± 1.1", "unit": "%"}]}]}
